# From PMC2196313 (The Journal of Experimental Medicine, 1997)
# Legend:
# [1] = system: CTL clone B3; settings: cited from earlier work
# [2] = system: CTL clone 4G3; format: cell-based, mouse
# [3] = system: CTL clone E8; format: cell-based, mouse (C57BL/6)
# [4] = system: CTL clone E8; format: cell-based, mouse (C57BL/6); remark: listed apart in the source
# [5] = system: TCR of CTL clone G9a; format: cell-based, mouse (C57BL/6)
Substance,antagonism for clone B3 [1],inhibition of specific target cell lysis by clone 4G3 [2],inhibition of specific target cell lysis by clone E8 [3],cold target inhibition of lysis by clone E8 [4],inhibition of agonist-induced loss of surface TCR on clone G9a [5]
SIIG FEK ^* L [O7(N4G)],potent antagonist,most sensitive,comparatively poor inhibitors,,
SIIR FEK ^* L [O7(N4R)],,,no effect within the concentration range tested,indistinguishable from RMA cells without added peptide,had no effect
